Data: patent publication US20200157151A1, “PEPTIDE COMPOUNDS, CONJUGATE COMPOUNDS AND USES THEREOF FOR TREATING INFLAMMATORY DISEASES” (TRANSFERT PLUS, S.E.C., priority 2017, published 2020)
“Also recorded” adds a separate entry of the source.

How the values were obtained:
[1] = system: human HT-29 colorectal cancer cells; test: Time-course uptake by flow cytometry (cell-associated fluorescence); format: cell-based; details: 5 μM, 37° C., HT-29 cells, FIG. 4B
Description: FIG. 4 is a series of charts illustrating higher and sustained uptake of KBC-201 (FIG. 4A). At the same concentration (5 μM), KBC-201 generates about half the fluorescence compared to free curcumin (Ex.: 488 nm, Em.: 530 nm) (FIG. 4B). Time-course uptake of KBC-201 (full line) and free curcumin (dotted line) in human HT-29 colorectal cancer cells. HT-29 cells were incubated at 37° C. with 5 μM of KBC-201 or curcumin at various times, trypsinized, washed, and cell-associated fluorescence uptake was quantified using a BD Accuri™ C6 flow cytometer.
(§1) The uptake of Curcumin conjugate or free Curcumin was measured as a function of time in human HT-29 colon cancer cells (FIG. 4). […] Indeed, the Curcumin conjugate (KBC-201) is less fluorescent by about 2-3 folds when compared to free Curcumin. […] The uptake of both KBC-201 and free Curcumin was next measured in the presence of Sortilin ligands (FIG. 5B). […] Taken together, data of the pharmacological inhibition using Sortilin ligands and the silencing of Sortlin expression confirm that the Curcumin conjugate is internalized via a Sortilin-dependent mechanism.

Sortilin receptor = molecular target: T1, Sortilin receptor (Homo sapiens, UniProt Q99523); test: Sortilin-mediated uptake in HT-29 cells (siRNA silencing and competition with Sortilin ligands); format: cell-based; details: 5 μM
T1 construct: Sortilin-deficient (siSortilin) HT-29 colorectal cancer cells; endogenous in cells; host or cells: HT-29 human colorectal cancer cells
T1 sequence (Q99523 78-831): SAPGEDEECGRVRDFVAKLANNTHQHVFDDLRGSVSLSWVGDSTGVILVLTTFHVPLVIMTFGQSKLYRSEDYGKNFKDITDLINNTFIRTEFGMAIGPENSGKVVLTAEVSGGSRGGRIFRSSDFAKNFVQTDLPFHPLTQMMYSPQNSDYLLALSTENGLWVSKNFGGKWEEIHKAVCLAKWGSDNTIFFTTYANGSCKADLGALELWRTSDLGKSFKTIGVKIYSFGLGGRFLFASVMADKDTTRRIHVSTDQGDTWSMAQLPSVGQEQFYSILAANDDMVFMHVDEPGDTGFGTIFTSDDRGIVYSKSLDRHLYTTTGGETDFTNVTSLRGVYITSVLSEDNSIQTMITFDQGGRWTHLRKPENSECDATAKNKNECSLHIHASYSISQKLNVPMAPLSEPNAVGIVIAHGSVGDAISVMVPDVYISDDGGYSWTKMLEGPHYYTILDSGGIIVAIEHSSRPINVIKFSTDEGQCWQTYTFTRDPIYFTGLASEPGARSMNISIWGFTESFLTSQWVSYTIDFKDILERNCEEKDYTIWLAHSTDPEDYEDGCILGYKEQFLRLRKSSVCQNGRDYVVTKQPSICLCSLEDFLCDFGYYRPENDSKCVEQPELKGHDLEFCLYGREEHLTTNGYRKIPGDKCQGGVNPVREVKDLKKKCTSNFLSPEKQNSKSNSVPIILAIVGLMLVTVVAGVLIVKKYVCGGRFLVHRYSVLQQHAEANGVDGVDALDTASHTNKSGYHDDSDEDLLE
Description: FIG. 5 is a series of charts showing Sortilin-mediated uptake of KBC-201 in human colorectal cancer cells, FIG. 5A) Uptake of 5 μM of KBC-201 or free curcumin were performed at 37° C. in control (siScrambled) or Sortilin-deficient (siSortilin) HT-29 colorectal cancer cells. After a 2 h incubation, cells were trypsinized to remove non-internalized products, washed 3-times with ice-cold PBS and cell-associated fluorescence was quantified using a BD Accuri™ C6 flow cytometer. […] Cell-associated fluorescence uptake was quantified using a BD Accuri™ C6 flow cytometer.
as §1

[2] = system: TNF-α-induced COX-2 expression in human HT-29 colon cancer cells; details: 2 h pre-treatment, 10 ng/mL TNF-α 24 h, HT-29, FIG. 6; compared to free Curcumin
Description: (§2) Cells were pre-treated for 2 h with indicated compounds in serum-free medium before the addition of 10 ng/mL TNF-α for 24 h. Cells were lysed and the levels protein expression of COX-2 were monitored by immunoblotting. […] For each sample, the COX-2 level was corrected for GAPDH (a loading control) and normalized to those seen in TNF-α control (value=100%).
as §2, with “the” for “the levels”, “expression levels” for “expression”

[3] = system: TNF-α-induced IκB phosphorylation in human HT-29 colon cancer cells; test: Inhibition of TNF-α-induced IκB phosphorylation in HT-29 cells; format: cell-based; details: 24 h pre-treatment, 100 ng/mL TNF-α 5 min, HT-29, FIGS. 8 and 17; compared to Curcumin
Source text: FIG. 8A) Immunodetection of IκB phosphorylation by TNF-α is shown.
One of the inflammatory pathways induced by TNF-α leads to the phosphorylation of IkB (FIG. 1), a key protein in inflammation. As expected, the addition of TNF-α to human HT-29 colon cancer cells triggered the phosphorylation of IkB (pIkB) (FIG. 8).
One of the inflammatory pathways induced by TNF-α leads to the phosphorylation IkB (see FIG. 1), a key protein in inflammation. It was observed that the addition of TNF-α to human HT-29 colon cancer cells triggered the phosphorylation of IkB (pIkB) (FIGS. 17A and 17B).

[4] = system: TNF-α-induced NFκB phosphorylation in human MDA-MB231 breast cancer cells; test: Inhibition of TNF-α-induced NFκB phosphorylation in MDA-MB231 cells; format: cell-based; details: 24 h pre-treatment, 100 ng/mL TNF-α 5 min, MDA-MB231, FIGS. 9 and 18
Source text: FIG. 9A) Immunodetection of phosphorylated NFκB by TNF-α is shown.
(§3) FIGS. 9 and 10 are other examples of the Curcumin conjugate (KBC-201)'s effect on the TNF-α-induced signaling pathways in two other cancer cell models.
Results presented in FIGS. 18A and 18B show now that the peptide alone (KBP-201) can reduce the TNF-α-induced NFκB phosphorylation by about 30%.
In FIG. 18A, immunodetection of NFκB phosphorylation by TNF-α is shown.

[5] = system: TNF-α-induced IκB phosphorylation in human SKOV3 ovarian cancer cells; test: Inhibition of TNF-α-induced IκB phosphorylation in SKOV3 cells; format: cell-based; details: 24 h pre-treatment, 100 ng/mL TNF-α 5 min, SKOV3, FIG. 10
Source text: FIG. 10A) Immunodetection of IκB phosphorylation by TNF-α is shown.
as §3

[6] = Stability at room temperature followed by absorbance over time; details: FIG. 11
Source text: FIG. 11 is a graph showing absorbance of Curcumin conjugates and free Curcumin.

Acetyl-YK(curcumin)SLRRK(curcumin)APRWDAPLRDPALRQLL (YKSLRRKAPRWDAPLRDPALRQLL) [KBC-201]
Uptake over time (cell-associated fluorescence) [1]: higher and sustained uptake over time
Uptake when Sortilin expression is reduced by siRNA (Sortilin receptor; 2 h, 37° C., siSortilin vs siScrambled HT-29 cells, FIG. 5A): strongly inhibited; also recorded: reduces KBC-201 uptake
Uptake in the presence of Sortilin ligands (Sortilin receptor; excess free peptide (50 μM), neurotensin (10 μM) or progranulin (1 nM), HT-29 cells, FIG. 5B): inhibited the uptake; also recorded: inhibit the uptake of KBC-201
Inhibition of TNFα-induced COX-2 expression [2]: stronger inhibition
Inhibition of TNF-α-induced IkB phosphorylation [3]: stronger inhibition
Antagonism of TNF-α-induced phosphorylation of pro-inflammatory proteins (NFκB) [4]: more potent than free Curcumin
Antagonism of TNF-α-induced phosphorylation of pro-inflammatory proteins (IκB) [5]: more potent than free Curcumin
Stability (absorbance over time) [6]: more stable
